From publication PMC7645381, “Development and application of a high-throughput screening assay for identification of small molecule inhibitors of the P. falciparum reticulocyte binding-like homologue 5 protein” (International Journal for Parasitology: Drugs and Drug …, 2020)
Counter-ions that a name gives are not always drawn. Like-named read-outs stand apart in the source and are kept apart here.

Legend:
[1] = test system: P. falciparum 3D7 parasites; assay: P. falciparum parasite viability assay (LDH); type: cell-based
Protocol: A modified version of the lactate dehydrogenase (LDH) assay described by [Gamo et al. […] Compounds were pre-dispensed in 384-well plates, RPMI/Albumax growth media was added, and P. falciparum inoculated. Plates were incubated for 72 h and then frozen at −80 °C overnight. LDH activity was quantified with the modified cofactor 3-acetylpyridine adenine dinucleotide (APAD) (Sigma Aldrich) by measuring absorbance of the tetrazolium indicator nitro blue tetrazolium (NBT) (Sigma Aldrich) at 650 nm. Parasite conditions: […] Growth inhibition assay: […] Intermediate compound dilution plates were prepared by dispensing 5 μL from each well of the compound master plate into 11.5 μL of RPMI/Albumax growth media. Duplicate assay plates (384-well) were then prepared by dispensing 0.5 μL of compound from the intermediate dilution plates into 9.5 μL of RPMI/Albumax growth media. […] The final DMSO concentration was 0.1% (to limit toxicity to parasites). […] Evaluation of parasite growth measuring lactate dehydrogenase (LDH) activity: After 72 h of incubation, plates were frozen at −80 °C overnight and then thawed at room temperature for at least 4 h. […] Plates were shaken to ensure mixing and absorbance at 650 nm was monitored using a PerkinElmer Envision plate reader after 30 min of incubation at room temperature. Data were normalised to percent growth inhibition using positive and negative controls and analyzed using TIBCO Spotfire software.

[2] = molecular target: T1, P. falciparum Rh5 (Rh5 – basigin interaction) (Plasmodium falciparum, UniProt Q8IFM5); assay: biochemical; type: binding; conditions: for Rh5 inhibitory activity in the AlphaScreen assay: highest concentration tested 50 μM
HepG2 cells = assay: HepG2 growth inhibition assay; type: cell-based; conditions: Homo sapiens, 10-point dilution series, 48 h, Cell Titre-Glo
Protocol: HepG2 cells were cultured in Dulbeccos modified eagle's medium (DMEM) supplemented with 10% fetal calf serum (FCS), in a humidified incubator at 37 °C and 5% CO2. Ten-point compound titration assays were performed by treating cells (1 × 10^3) for 48 h in 384 well tissue culture treated plates (Greiner). Cytotoxicity was determined using Cell Titer Glo (Promega) and calculated as a percentage using DMSO as a positive growth control and 10 μM Bortezomib as a negative growth control. EC50 values were calculated using a 4-parameter log dose, non-linear regression analysis, with sigmoidal dose response (variable slope) curve fit using Graph Pad Prism (version 6.05). 0 and 100 constraint parameters were used for curve fitting. […]

[3] = AlphaScreen TruHits counterscreen assay; conditions: TruHits counterscreen, single point, 10 μM in duplicate
Protocol: The counterscreen assay was conducted using AlphaScreen TruHits kit (PerkinElmer). Biotinylated acceptor beads and Streptavidin donor beads were both diluted in assay buffer (final concentration of 10 μg/mL). Using the Combi-multidrop, 10 μL of each bead solution (20 μg/mL prepared in assay buffer) was added to every well of the assay plate under subdued lighting. Compound addition and assay readout was performed as described above.

[4] = molecular target: T1, P. falciparum Rh5 (Rh5 – basigin interaction); assay: biochemical; parameters: AlphaScreen of Rh5 - His-tagged basigin interaction with anti-Rh5 mAb beads; inhibition of luminescence signal; conditions: Batch Reference=01, primary pilot screen, single point
Protocol: Using the Combi-multidrop, 5 μL of Rh5 stock solution (200 nM prepared in assay buffer) was added to columns 1–24 of the 384-well assay plate (Greiner 384-well white, low binding plate, #784904, Bioone). The PerkinElmer Janus automated dispensing system was then employed to transfer, via the pin-tool, 2 × 100 nL of the compound stock DMSO solution from the compound master plate to the assay plate. The plate was sealed and incubated for 30 min at room temperature. Using a Combi-multidrop, 5 μL of hexa-histidine tagged basigin stock solution (80 nM prepared in assay buffer) was then added to columns 1–23 and 5 μL assay buffer to column 24 of the 384-well assay plate. The plate was sealed again and incubated for 30 min at room temperature. A solution of AlphaScreen donor and acceptor beads (20 μg/mL prepared in assay buffer) plus anti-Rh5 mAb solution (2 μg/mL prepared in assay buffer) was prepared in assay buffer under subdued lighting. Using the Combi-multidrop, 10 μL of this solution was added to every well of the assay plate under subdued lighting. The plate was sealed with foil (plate max) and incubated at room temperature for 1 h. The assay plate was then analysed on the PerkinElmer Envision 2103 Multilabel Plate Reader (Ex 680, Em 520–620 nm). The optimised Rh5 AlphaScreen assay was then validated for HT screening purposes by conducting a pilot screen using known drug library (from Prestwick, Tocris and LOPAC) and the MMV Malaria Box, comprising 3708 and 400 compounds (Fig. 1), respectively. Historically, PPIs are notoriously difficult to target with small molecules. To enhance the likelihood of identifying an inhibitor of the Rh5 - basigin interaction the primary screen was conducted at a compound concentration of 20 μM. A 20 μM screening concentration is considered high, when compared to the commonly used primary screen concentrations of approximately 1–10 μM. To follow-up on hit compounds from the pilot validation screen, we next wanted to confirm the activity of the primary hits. To do this, a two-phase hit confirmation and counterscreen process was undertaken (Fig. 1). In the first phase, the 231 primary hits from both libraries were evaluated in the Rh5 AlphaScreen assay and counterscreen assay. Both assays were undertaken at 10 μM in duplicate. The counterscreen assay was conducted using AlphaScreen TruHits. […] The 45 secondary hits can be viewed in the top left quadrant of Fig. S8. Of the 45 hits, 13 compounds originated from the Malaria Box and 32 compounds from the known drug library.

[5] = molecular target: T1, P. falciparum Rh5 (Rh5 – basigin interaction); assay: biochemical; parameters: AlphaScreen of Rh5 - His-tagged basigin interaction with anti-Rh5 mAb beads; inhibition of luminescence signal; conditions: Batch Reference=01, confirmation screen, duplicate
Protocol: Using the Combi-multidrop, 5 μL of Rh5 stock solution (200 nM prepared in assay buffer) was added to columns 1–24 of the 384-well assay plate (Greiner 384-well white, low binding plate, #784904, Bioone). The PerkinElmer Janus automated dispensing system was then employed to transfer, via the pin-tool, 2 × 100 nL of the compound stock DMSO solution from the compound master plate to the assay plate. The plate was sealed and incubated for 30 min at room temperature. Using a Combi-multidrop, 5 μL of hexa-histidine tagged basigin stock solution (80 nM prepared in assay buffer) was then added to columns 1–23 and 5 μL assay buffer to column 24 of the 384-well assay plate. The plate was sealed again and incubated for 30 min at room temperature. A solution of AlphaScreen donor and acceptor beads (20 μg/mL prepared in assay buffer) plus anti-Rh5 mAb solution (2 μg/mL prepared in assay buffer) was prepared in assay buffer under subdued lighting. Using the Combi-multidrop, 10 μL of this solution was added to every well of the assay plate under subdued lighting. The plate was sealed with foil (plate max) and incubated at room temperature for 1 h. The assay plate was then analysed on the PerkinElmer Envision 2103 Multilabel Plate Reader (Ex 680, Em 520–620 nm). […] Historically, PPIs are notoriously difficult to target with small molecules. To enhance the likelihood of identifying an inhibitor of the Rh5 - basigin interaction the primary screen was conducted at a compound concentration of 20 μM. A 20 μM screening concentration is considered high, when compared to the commonly used primary screen concentrations of approximately 1–10 μM. […] To do this, a two-phase hit confirmation and counterscreen process was undertaken (Fig. 1). […] Both assays were undertaken at 10 μM in duplicate. The counterscreen assay was conducted using AlphaScreen TruHits.

D10-PfPHG parasites = assay: Schizont rupture assay; type: cell-based, P. falciparum; conditions: 50 and 100 μM, 6 h, flow cytometry
Protocol: D10-PfPHG parasites ([Wilson et al., 2010]) were cultured in human O^+ erythrocytes in RPMI-HEPES culture medium (pH 7.4, 50 μg/mL hypoxanthine, 25 mM NaHCO3, 20 μg/mL gentamicin, 0.5% Albumax II (Thermo Fisher Scientific) according to established protocols ([Trager and Jensen, 1976]) and maintained in an atmosphere of 1% O2, 4% CO2 and 95% N2. For assessment of merozoite invasion after schizont rupture, parasites were tightly synchronised to a 4 h window of invasion using heparin ([Boyle et al., 2010]; [Wilson et al., 2015]) and then grown for a further 42 h. Drug treatments were setup at 2–3% parasitaemia and 1% haematocrit in 50 μL volumes with a 1 in 10 dilution of drug added when parasites were 44–48 h post invasion. After 6 h of drug treatment and immediately after invasion was expected to finish, the assays were treated with 5 μg/mL ethidium bromide (EtBr, Bio-Rad) for 5 min prior to flow cytometry assessment of parasitaemia using a Becton Dickinson Accuri. Gating of newly invaded rings, free merozoites and unruptured late stages was achieved as per published methods ([Wilson et al., 2013]).
To determine if the modest activity of pranlukast and analogues in the parasite viability assay was a consequence of invasion inhibition, rather than inhibition at another stage of blood stage parasite development, we performed an assay that measures the effect of compound treatment on P. falciparum D10 asexual stage transition between late schizont and ring stages ([Wilson et al., 2013]). In this assay, highly synchronised mature schizont-stage parasites were incubated with pranlukast and selected analogues at 50 and 100 μM and the transition to newly invaded ring stage parasites was quantified by flow cytometry. In parallel, the rate of schizont rupture and merozoite release was quantified to assess whether any reduction in newly invaded ring stages was due to a block affecting merozoite release or development. […] Neither DMSO (at the maximal concentration used for the drug treatments of 0.1%) or a non-invasion inhibitory mAb control caused a reduction in merozoite invasion. […] […].

[6] = Plasmodium falciparum, 3D7, 72 h, LDH activity, 10-point dilution series, 72 h, read-out: P. falciparum 3D7 EC50
[7] = LDH activity, 10-point dilution series, 72 h, read-out: P. falciparum 3D7 EC50

T1 sequence (Q8IFM5 24-526): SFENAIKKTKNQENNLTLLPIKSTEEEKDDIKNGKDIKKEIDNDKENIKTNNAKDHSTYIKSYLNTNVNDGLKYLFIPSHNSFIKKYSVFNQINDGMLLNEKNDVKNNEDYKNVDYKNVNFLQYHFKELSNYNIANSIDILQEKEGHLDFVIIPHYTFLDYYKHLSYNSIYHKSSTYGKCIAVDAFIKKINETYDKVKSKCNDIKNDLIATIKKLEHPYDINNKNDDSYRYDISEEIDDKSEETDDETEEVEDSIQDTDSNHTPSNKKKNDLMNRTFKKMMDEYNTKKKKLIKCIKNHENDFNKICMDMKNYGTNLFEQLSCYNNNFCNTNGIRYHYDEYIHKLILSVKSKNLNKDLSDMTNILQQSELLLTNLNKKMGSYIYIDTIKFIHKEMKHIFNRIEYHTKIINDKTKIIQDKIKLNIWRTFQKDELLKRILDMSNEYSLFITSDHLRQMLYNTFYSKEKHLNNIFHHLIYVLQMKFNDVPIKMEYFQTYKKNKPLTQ

Compound | EC50 [1, 6] [µM] | EC50 (HepG2 cells) [µM] | inhibition at 20 µM [4] [%] | inhibition at 10 µM [5] [%] | other results
C[C@H]1CCC/C=C/[C@@H]2C[C@H](O)C[C@H]2[C@H](O)/C=C/C(=O)O1 [Brefeldin A, reference compound] | 3.5 | – | – | – | –
CCN(CC)CCCC(C)Nc1ccnc2cc(Cl)ccc12 (stereo not shown) [Chloroquine, reference compound] | – | – | – | – | EC50 ([1]; Plasmodium falciparum, 3D7, 72 h, read-out: P. falciparum 3D7 EC50, control, LDH activity, 72 h): 0.018 µM
COc1ccc(C(=O)Nc2cccc3c(=O)cc(C(=O)O)oc23)cc1 [Compound 21, 8-(4-Methoxybenzamido)-4-oxo-4H-chromene-2-carboxylic acid] | > 50 | > 50 | – | – | IC50 [2]: > 50 µM; Rh5 inhibitory activity in the AlphaScreen assay [2]: No activity
COc1ccc(C(=O)Nc2cccc3c(=O)cc(-c4nn[nH]n4)oc23)cc1 [Compound 24, 4-Methoxy-N-(4-oxo-2-(2H-tetrazol-5-yl)-4H-chromen-8-yl)benzamide] | 25 | > 50 | – | – | IC50 [2]: > 50 µM
O=C(Nc1cccc2c(=O)cc(-c3nn[nH]n3)oc12)c1ccc(OCCCc2ccccc2)cc1 [Compound 25, N-(4-Oxo-2-(2H-tetrazol-5-yl)-4H-chromen-8-yl)-4-(3-phenylpropoxy)benzamide] | 7 | > 50 | – | – | IC50 [2]: 20 µM; EC50 [1, 7]: 7.3 µM
CCCc1c(OCC(O)COc2ccc3c(=O)cc(C(=O)O)oc3c2CCC)ccc(C(C)=O)c1O (stereo not shown) [FPL 55712, reference compound] | – | > 50 | – | – | EC50 ([1]; Plasmodium falciparum, 3D7, 72 h, read-out: P. falciparum 3D7 EC50): > 50 µM
Oc1c(Cl)cc(Cl)c(Cl)c1Cc1c(O)c(Cl)cc(Cl)c1Cl [WEHI-0104268, Hexachlorophene, reference compound] | – | – | – | – | % Inhibition Counter [3]: 28.8475%
O=C(O)Cc1cccc(OCCCN(Cc2cccc(C(F)(F)F)c2Cl)CC(c2ccccc2)c2ccccc2)c1 [WEHI-1216231, GW 3965 hydrochloride] | – | – | 57.8 | 51.1 | –
CN1CCc2cccc3c2[C@H]1Cc1ccc(O)c(O)c1-3 [WEHI-1216442, (R)-(-)-Apomorphine hydrochloride] | – | – | 70.8 | 76.5 | –
O=C1C=CC(=O)c2c1ccc1c2ccc2ccccc21 [WEHI-1216729, Chrysene-1,4-quinone] | – | – | 56.6 | 71 | –
CC[N+](C)(CC)CCC[n+]1c(-c2ccccc2)c2cc(N)ccc2c2ccc(N)cc21 [WEHI-1216760, Propidium iodide] | – | – | 55.7 | 77 | –
NCCNCCNCCNCCN [WEHI-1217021, Tetraethylenepentamine pentahydrochloride] | – | – | 96.2 | 96.9 | –
CN1CCc2cccc3c2[C@H]1Cc1ccc(O)c(O)c1-3 [WEHI-1217165, R(-) Apomorphine hydrochloride hemihydrate] | – | – | – | – | % Inhibition Pilot ([4]; 20 µM, inhibitor, % Inhibition Pilot): 61.89%; % Inhibition Confirmation ([5]; 10 µM, inhibitor, % Inhibition Confirmation): 62.575%
COCCCOc1ccnc(C[S+]([O-])c2nc3ccccc3[nH]2)c1C (stereo not shown) [rabeprazole] | – | – | 59.6 | 68 | –
COc1cc(C(=O)NS(=O)(=O)c2ccccc2C)ccc1Cc1cn(C)c2ccc(NC(=O)OC3CCCC3)cc12 [zafirlukast, reference compound] | 6 | > 50 | – | – | IC50 [2]: 17 µM; Rh5 inhibitory activity in the AlphaScreen assay [2]: possess inhibitory activity; EC50 [1, 7]: 5.9 µM
heparin | – | – | – | – | free merozoite numbers (D10-PfPHG parasites): not free merozoites; merozoite invasion (newly invaded early ring stages) (D10-PfPHG parasites): reduction in the number of early rings stage parasites
